The numbers were not newly measured in patent US6441051B1, “Insect eradicator and method” (priority 2001, dated 2002), which cites them from elsewhere.

Each structure is given as a SMILES string.

This series concerns fire ants. To be noted: d-limonene at about 5% concentration, after twenty-four hours.

As for `C=C(C)[C@H]1CC=C(C)CC1` [d-limonene], the kill rate result was “approximately 70%”.
